Results from patent US12344610B2, “APOL1 inhibitors and methods of use” (Maze Therapeutics, Inc., priority 2022, dated 2025).

Assays:
Format in all cases: cell-based
[1] = molecular target: T1, APOL1 G2 (Homo sapiens, UniProt O14791, DEL388-389); assay: APOL1-mediated calcium transport (calcium influx) assay, HEK T-REx/GCaMP6f/APOL1 G2 K6.3 cells, FLIPR TETRA; settings: prevention of calcium influx; geometric mean of at least 2 assay runs; † = average of a technical replicate from a single assay run
T1 construct: expressed in transfected cells; host or cells: HEK293 T-REx clonal line stably expressing GCaMP6f (HEK T-REx/GCaMP6f/APOL1 G2 K6.3), doxycycline induced
T1 sequence (O14791 with tags, fused parts or gaps DEL388-389): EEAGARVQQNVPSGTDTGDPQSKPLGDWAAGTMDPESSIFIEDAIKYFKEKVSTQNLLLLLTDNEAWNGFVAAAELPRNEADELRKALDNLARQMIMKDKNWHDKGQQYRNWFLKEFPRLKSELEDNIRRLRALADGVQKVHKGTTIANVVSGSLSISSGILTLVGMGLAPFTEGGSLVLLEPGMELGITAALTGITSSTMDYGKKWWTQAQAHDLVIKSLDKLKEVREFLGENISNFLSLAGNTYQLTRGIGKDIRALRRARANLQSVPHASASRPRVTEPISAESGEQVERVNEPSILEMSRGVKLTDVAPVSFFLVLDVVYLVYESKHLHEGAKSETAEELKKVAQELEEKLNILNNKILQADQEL
Description: A HEK293 clonal cell line was generated to stably express GCaMP6f, a genetically encoded calcium indicator, and inducibly express APOL1 G2 (HEK T-REx/GCaMP6f/APOL1 G2 K6.3). Cells were maintained in the following standard complete medium: DMEM with 4.5 g/L glucose and sodium pyruvate (BioWhittaker, Lonza, BE12-614F), supplemented with 10% FBS Performance Plus (Gibco, 16000044), 1% penicillin-streptomycin (BioWhittaker, DE17-602E), 2 mM ultraglutamine-1 (BioWhittaker cat. BE 17-605/U1), 50 μg/mL Zeocin (InvivoGen, ant-zn), 2.5 μg/mL Blasticidin (InvivoGen, ant-bl-5), and 25 μg/mL Hygromycin (InvivoGen, ant-hg). Standard propagation conditions consisted of plating 9×10^6, 4×10^6, 2×10^6 cells in a T225 flasks to be processed after 2, 3, or 4 days, respectively.
A source plate was generated containing 20 serially diluted compounds in DMSO (duplicate 8-point dose response). Next, 0.8 μL of compounds were transferred from the source plate to a destination plate prefilled with 79.2 μL of Ca^2+ free Tyrode's buffer (130 mM NaCl, 5 mM KCl, 1 mM MgCl2, 5 mM NaHCO3, 20 mM HEPES at pH 7.4). The destination plate was placed on a plate shaker (5 seconds at 2000 rpm) to mix. […] All transfer and mixing steps were conducted with an CyBi®-Well dispenser.
Cells were split by gently washing with DPBS (Euroclone, ECB4004L), followed by a 5-minute incubation (humidified, 37° C. with 5% CO2) with trypsin-EDTA solution (Euroclone, ECB3052D). Detached cells were diluted with standard complete medium without selective agents, counted, and plated in a 384 MTP microplate (GR4332CPL, Twin Helix) (10,000 cells/well in 25 μl/well) using a MATRIX WellMate dispenser. Plates were placed into a humidified incubator (37° C. with 5% CO2) overnight. The following day, 20 μL of doxycycline (Sigma, D9891) at 20 ng/mL in standard complete medium was added to cells with a CyBi® Drop dispenser to induce APOL1 G2 expression. After a 6-hour incubation (humidified, 37° C. with 5% CO2), cells were washed 3 times with Ca^2+ free Tyrode's Buffer (130 mM NaCl, 5 mM KCl, 1 mM MgCl2, 5 mM NaHCO3, 20 mM HEPES at pH 7.4) using a BIOTEK Microplate washer, such that 10 μL of buffer remained in each well after the final wash. Assay plates were then stored at room temperature for 10 minutes. Next, 10 μL of diluted compounds were transferred to the assay plate from the 2× compound plate using a CyBi®-Well dispenser. Compound incubation was then carried out at room temperature for 10 minutes. The assay plate was transferred to the FLIPR^TETRA and 20 μL of 10 mM Ca^2+ (final concentration=5 mM) Tyrode's buffer was injected.
Unless otherwise specified, AC50 and values are reported as the geometric mean of at least 2 assay runs on separate days. Each run represents the average of a technical replicate, where each compound was assayed twice in the same plate. A superscript t symbol indicates a value from the average of a technical replicate from a single assay run, where each compound was assayed twice in the same plate.
The AC50 values in Table 39 below reflect the compound's ability to prevent calcium influx by inhibiting APOL1. […] Compounds in Table 39 are referred to by the corresponding Compound Number in Table 1, which is also referred to in the synthetic examples. When one or more of the numbered compounds are identified by stereochemistry (for example, (R)- or (S)-), the specific stereoisomer for which data is provided in Table 39 may be identified by the elution order of such compound as described in the synthetic examples. For example, Compounds 39 and 40 are associated with Step 5 of Example 13, where Compound 39 is the first eluting enantiomer, and Compound 40 is the second eluting enantiomer in the chiral separation of Compound 38. For Table 39 below, n/a represents “not available”.

[2] = test system: HEK293 clonal cell line overexpressing APOL1 G1; assay: APOL1 G1 HEK293 cell rescue assay (Example B3); settings: Homo sapiens, HEK293, HEK293 clonal line overexpressing APOL1 G1; geometric mean of at least 2 runs; † = single run; ¥ = concentration at 50% rescue estimated (no sigmoidal curve)
In short: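 HEK293 clonal line overexpressing APOL1 G1; EC50 is half-maximal reversal of APOL1-induced cell death. Values are the geometric mean of ≥2 runs on separate days, each run the average of duplicate wells. Where no sigmoidal curve could be fitted, the concentration giving 50% rescue was estimated.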

[3] = test system: HEK293 cells overexpressing APOL1 G2; assay: APOL1 G2 HEK293 cell rescue assay (reversal of cell death caused by overexpression of APOL1); settings: Homo sapiens, HEK293, HEK293 overexpressing APOL1 G2; geometric mean of at least 2 assay runs; † = single assay run
In short: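 EC50 is the half-maximal effective concentration for reversing cell death driven by APOL1 G2 overexpression in HEK293 cells. Reported as geometric mean of at least 2 runs on separate days, each run averaging duplicate wells per plate; some values from a single run.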

CN1C(=O)C2(CCN(CCOc3ccc4c(c3)CCS4(=O)=O)CC2)c2ccccc21 [Compound 32, 5-(2-{1-methyl-2-oxo-1,2-dihydrospiro[indole-3,4′-piperidin]-1′-yl}ethoxy)-2,3-dihydro-1λ^6-benzothiophene-1,1-dione]
AC50 [1]: 262 nM | EC50 [2]: 1860 nM | EC50 [3]: 785 nM

CN1C(=O)Cc2cc(OCCN3CCC4(CC3)C(=O)N(C)c3ccccc34)ccc21 [Compound 33, 1-methyl-1′-{2-[(1-methyl-2-oxo-2,3-dihydro-1H-indol-5-yl)oxy]ethyl}-1,2-dihydrospiro[indole-3,4′-piperidin]-2-one]
AC50 [1]: 218 nM | EC50 [2]: > 3470 nM | EC50 [3]: 1070 nM

CN1C(=O)C2(CCN(CCOc3ccc4nccnc4c3)CC2)c2ccccc21 [Compound 34, 1-methyl-1′-[2-(quinoxalin-6-yloxy)ethyl]-1,2-dihydrospiro[indole-3,4′-piperidin]-2-one]
AC50 [1]: 168 nM | EC50 [2]: > 1960 nM | EC50 [3]: 1330 nM

CN1C(=O)C2(CCN(CCOc3ccc(N4CCCC4=O)cc3)CC2)c2ccccc21 [Compound 37, 1-methyl-1′-{2-[4-(2-oxopyrrolidin-1-yl)phenoxy]ethyl}-1,2-dihydrospiro[indole-3,4′-piperidin]-2-one]
AC50 [1]: 327 nM | EC50 [2]: 692 nM | EC50 [3]: 1280 nM

CC(c1ccc(OCCN2CCC3(CC2)C(=O)Nc2ccc(Cl)cc23)cc1)S(C)(=O)=O (stereo not drawn) [Compound 38, 5-chloro-1′-{2-[4-(1-methanesulfonylethyl)phenoxy]ethyl}-1,2-dihydrospiro[indole-3,4′-piperidin]-2-one]
AC50 [1]: 307 nM | EC50 [2]: 222 nM | EC50 [3]: 59 nM

CS(=O)(=O)CCCS(=O)(=O)c1ccc(OCCN2CCC3(CC2)C(=O)Nc2ccc(Cl)cc23)cc1 [Compound 41, 5-chloro-1′-{2-[4-(3-methanesulfonylpropanesulfonyl)phenoxy]ethyl}-1,2-dihydrospiro[indole-3,4′-piperidin]-2-one]
AC50 [1]: 709 nM | EC50 [2]: 307 nM | EC50 [3]: 97 nM

NC(=O)c1ccc(OCCN2CCC3(CC2)C(=O)Nc2ccc(Cl)cc23)cn1 [Compound 47, 5-(2-{5-chloro-2-oxo-1,2-dihydrospiro[indole-3,4′-piperidin]-1′-yl}ethoxy)pyridine-2-carboxamide]
AC50 [1]: 641 nM | EC50 [2]: 399 nM | EC50 [3]: 148 nM

CS(=O)(=O)c1ccc(OCCN2CCC3(CC2)C(=O)Nc2ccc(Cl)cc23)c(F)c1 [Compound 48, 5-chloro-1′-[2-(2-fluoro-4-methanesulfonylphenoxy)ethyl]-1,2-dihydrospiro[indole-3,4′-piperidin]-2-one]
AC50 [1]: 567 nM | EC50 [2]: 445 nM | EC50 [3]: 199 nM

CN(C)C(=O)c1ccc(OCCN2CCC3(CC2)C(=O)Nc2ccc(Cl)cc23)cn1 [Compound 51]
AC50 [1]: 953 nM | EC50 [2]: 1250 nM | EC50 [3]: 214 nM

CNC(=O)c1ccc(OCCN2CCC3(CC2)C(=O)Nc2ccc(Cl)cc23)cc1 [Compound 52, 4-(2-{5-chloro-2-oxo-1,2-dihydrospiro[indole-3,4′-piperidin]-1′-yl}ethoxy)-N-methylbenzamide]
AC50 [1]: 615 nM | EC50 [2]: 1060 nM | EC50 [3]: 214 nM

CS(=O)(=O)N1Cc2ccc(OCCN3CCC4(CC3)C(=O)Nc3ccc(Cl)cc34)cc2C1 [Compound 54, 5-chloro-1′-{2-[(2-methanesulfonyl-2,3-dihydro-1H-isoindol-5-yl)oxy]ethyl}-1,2-dihydrospiro[indole-3,4′-piperidin]-2-one]
AC50 [1]: 804 nM | EC50 [2]: 386 nM | EC50 [3]: 90.3 nM

CN1C(=O)C2(CCN(CCOc3ccc4c(c3)CCN(S(C)(=O)=O)C4)CC2)c2ccccc21 [Compound 55, 1′-{2-[(2-methanesulfonyl-1,2,3,4-tetrahydroisoquinolin-6-yl)oxy]ethyl}-1-methyl-1,2-dihydrospiro[indole-3,4′-piperidin]-2-one]
AC50 [1]: < 284 nM | EC50 [2]: 1210 nM | EC50 [3]: 983 nM

CC(=O)N1CCc2cc(OCCN3CCC4(CC3)C(=O)N(C)c3ccccc34)ccc2C1 [Compound 58, 1′-{2-[(2-acetyl-1,2,3,4-tetrahydroisoquinolin-6-yl)oxy]ethyl}-1-methyl-1,2-dihydrospiro[indole-3,4′-piperidin]-2-one]
AC50 [1]: < 320 nM | EC50 [2]: 2120 nM | EC50 [3]: 1310 nM

CC(=O)N1CCCc2cc(OCCN3CCC4(CC3)C(=O)Nc3ccc(C#N)cc34)ccc21 [Compound 59, 1′-{2-[(1-acetyl-1,2,3,4-tetrahydroquinolin-6-yl)oxy]ethyl}-2-oxo-1,2-dihydrospiro[indole-3,4′-piperidine]-5-carbonitrile]
AC50 [1]: 879 nM | EC50 [2]: 422 nM | EC50 [3]: 213 nM

CNC(=O)N1Cc2ccc(OCCN3CCC4(CC3)C(=O)Nc3ccc(Cl)cc34)cc2C1 [Compound 61, 5-(2-{5-chloro-2-oxo-1,2-dihydrospiro[indole-3,4′-piperidin]-1′-yl}ethoxy)-N-methyl-2,3-dihydro-1H-isoindole-2-carboxamide]
AC50 [1]: 686 nM | EC50 [2]: 632 nM | EC50 [3]: 267 nM

CN1C(=O)C2(CCN(CCOc3ccc(S(C)(=O)=O)cc3)CC2)c2ccccc21 [Compound 67, 1′-[2-(4-methanesulfonylphenoxy)ethyl]-1-methyl-1,2-dihydrospiro[indole-3,4′-piperidin]-2-one]
AC50 [1]: 351 nM | EC50 [2]: 2860 nM | EC50 [3]: 802 nM

CS(=O)(=O)c1ccc(OCCN2CCC3(CC2)C(=O)Nc2ccccc23)cc1 [Compound 73, 1′-[2-(4-methanesulfonylphenoxy)ethyl]-1,2-dihydrospiro[indole-3,4′-piperidin]-2-one]
AC50 [1]: 161 nM | EC50 [2]: 3520 nM | EC50 [3]: 527 nM

CS(=O)(=O)c1ccc(OCCN2CCC3(CC2)C(=O)Nc2ccc(C#N)cc23)cc1F [Compound 74, 1′-[2-(3-fluoro-4-methanesulfonylphenoxy)ethyl]-2-oxo-1,2-dihydrospiro[indole-3,4′-piperidine]-5-carbonitrile]
AC50 [1]: 781 nM | EC50 [2]: 471 nM | EC50 [3]: 167 nM
